This note sets out measurements from patent publication US10369138B2, “Monobactam organic compounds for the treatment of bacterial infections” (Novartis AG, priority 2014, dated 2019).

Assay [1] has as its system E. coli strain 25922. The experiment in a line: MIC by broth microdilution, E. coli strain 25922. Format: cell-based. In a few lines:
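CLSI broth microdilution in cation-adjusted Mueller-Hinton broth, inoculum about 5×10^5 CFU/mL, 10% DMSO from the diluted series, 20 h at 35-37° C. MIC is the lowest concentration preventing visible growth, read by eye and at 600 nm.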
In general terms: Dilution methods test growth across graded concentrations, often in twofold steps.

In assay [2] the test system is E. coli containing KPC-2. The experiment in a line: MIC by broth microdilution, E. coli containing KPC-2 (Ec KPC2 Iso). Format: cell-based. As to conditions: Escherichia coli, read-out: Ec KPC2 Iso (MIC), E. coli containing KPC-2 (carbapenemase from Klebsiella pneumoniae). In a few lines: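 Host E. coli BW25113 pspB carrying multicopy pBAD18-kan plasmid with constitutive TEM-promoter KPC-2 expression (periplasmic signal sequence); broth microdilution per CLSI in cation-adjusted Mueller-Hinton broth, inoculum ~5×10^5 CFU/mL, compounds twofold serially diluted from DMSO masters (10% DMSO in dilution series added).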

[3] abbreviates: Escherichia coli, 25922, E. coli strain 25922, read-out: Ec 25922 (MIC).

≈ marks a conversion by molar mass, not a printed value. Read-outs that look alike come from different tables or passages of the source. Some results are limits rather than exact numbers.

One may read the MIC as the least concentration at which growth counts as inhibited. Take `CC(C)(O/N=C(\C(=O)N[C@@H]1C(=O)N(S(=O)(=O)O)[C@@H]1Cn1ncc(CC#N)n1)c1csc(N)n1)C(=O)O` [Example 33, 2-(((Z)-(1-(2-aminothiazol-4-yl)-2-(((2R,3S)-2-((4-(cyanomethyl)-2H-1,2,3-triazol-2-yl)methyl)-4-oxo-1-sulfoazetidin-3-yl)amino)-2-oxoethylidene)amino)oxy)-2-methylpropanoic acid]: the minimum inhibitory concentration (MIC) in assay [1] (setting [3]) and in assay [2] was 2 µg/mL (≈ 3.69 µM) in each case.

On to `CC(C)(O/N=C(\C(=O)N[C@@H]1C(=O)N(S(=O)(=O)O)[C@@H]1Cn1ncc(C[N+]2(C)CCCC2)n1)c1csc(N)n1)C(=O)O` [Example 36, (2R,3S)-3-((Z)-2-(2-aminothiazol-4-yl)-2-(((2-carboxypropan-2-yl)oxy)imino)acetamido)-2-((4-((1-methylpyrrolidin-1-ium-1-yl)methyl)-2H-1,2,3-triazol-2-yl)methyl)-4-oxoazetidine-1-sulfonate], for which the MIC amounted to 2 µg/mL in assay [1] (setting [3]) and 1 µg/mL in assay [2].

In the case of `NC[C@@H]1CN(C[C@@H]2[C@H](NC(=O)/C(=N\OC3(C(=O)O)CC3)c3csc(N)n3)C(=O)N2S(=O)(=O)O)C(=O)O1` [Example 25, 1-(((Z)-(2-(((2R,3S)-2-(((R)-5-(aminomethyl)-2-oxooxazolidin-3-yl)methyl)-4-oxo-1-sulfoazetidin-3-yl)amino)-1-(2-aminothiazol-4-yl)-2-oxoethylidene)amino)oxy)-cyclopropanecarboxylic acid], the minimal inhibitory concentration (MIC) in assay [1] (setting [3]) was 0.125 µg/mL (≈ 0.228 µM); in assay [2], at most 0.06 µg/mL.

As to `N=C(N[C@@H]1CCNC1)c1ccc(OC[C@H](O/N=C(\C(=O)N[C@@H]2C(=O)N(S(=O)(=O)O)[C@@H]2Cn2cncn2)c2csc(N)n2)C(=O)O)cc1` [Example 73, (S)-2-(((Z)-(2-(((2R,3S)-2-((1H-1,2,4-triazol-1-yl)methyl)-4-oxo-1-sulfoazetidin-3-yl)amino)-1-(2-aminothiazol-4-yl)-2-oxoethylidene)amino)oxy)-3-(4-(N—((R)-pyrrolidin-3-yl)carbamimidoyl)phenoxy)propanoic acid], the MIC in assay [1] (setting [3]) and in assay [2] was 0.25 µg/mL (≈ 0.361 µM) each time.

`CC(C)(O/N=C(\C(=O)N[C@@H]1C(=O)N(S(=O)(=O)O)[C@@H]1Cn1cnc(C#N)n1)c1csc(N)n1)C(=O)O` [Example 105, 2-(((Z)-(1-(2-aminothiazol-4-yl)-2-(((2R,3S)-2-((3-cyano-1H-1,2,4-triazol-1-yl)methyl)-4-oxo-1-sulfoazetidin-3-yl)amino)-2-oxoethylidene)amino)oxy)-2-methylpropanoic acid]: the MIC is 16 µg/mL (≈ 30.3 µM) in assay [1] (setting [3]) and 32 µg/mL (≈ 60.7 µM) in assay [2].

Turning to `CC(C)(O/N=C(\C(=O)N[C@@H]1C(=O)N(S(=O)(=O)O)[C@@H]1Cn1cc(N)cn1)c1csc(N)n1)C(=O)O` [Example 35, 2-(((Z)-(2-(((2R,3S)-2-((4-amino-1H-pyrazol-1-yl)methyl)-4-oxo-1-sulfoazetidin-3-yl)amino)-1-(2-aminothiazol-4-yl)-2-oxoethylidene)amino)oxy)-2-methylpropanoic acid], the minimal inhibitory concentration (MIC) in assay [1] (setting [3]) turned out to be 2 µg/mL (≈ 3.87 µM); in assay [2] it was 1 µg/mL (≈ 1.94 µM).

For the compound `NCCCNCc1cn(C[C@@H]2[C@H](NC(=O)/C(=N\OC3(C(=O)O)CC3)c3csc(N)n3)C(=O)N2S(=O)(=O)O)nn1` [Example 69, 1-(((Z)-(2-(((2R,3S)-2-((4-(((3-aminopropyl)amino)methyl)-1H-1,2,3-triazol-1-yl)methyl)-4-oxo-1-sulfoazetidin-3-yl)amino)-1-(2-aminothiazol-4-yl)-2-oxoethylidene)amino)oxy)cyclopropanecarboxylic acid compound with formic acid (1:1)], the minimal inhibitory concentration (MIC) in assay [1] (Escherichia coli, 25922, read-out: Ec 25922 (MIC)) came out at 0.25 µg/mL (≈ 0.426 µM); in assay [2] it was 0.125 µg/mL (≈ 0.213 µM).

With `CC(C)(O/N=C(\C(=O)N[C@@H]1C(=O)N(S(=O)(=O)O)[C@@H]1Cn1ncc(COS(=O)(=O)O)n1)c1csc(N)n1)C(=O)O` [Example 38, 2-(((Z)-(1-(2-aminothiazol-4-yl)-2-oxo-2-(((3S,4R)-2-oxo-1-sulfo-4-((4-((sulfooxy)methyl)-2H-1,2,3-triazol-2-yl)methyl)azetidin-3-yl)amino)ethylidene)amino)oxy)-2-methylpropanoic acid], the values for the minimum inhibitory concentration (MIC) in assay [1] (setting [3]) and in assay [2] were 8 µg/mL (≈ 13.1 µM) and 4 µg/mL (≈ 6.53 µM), respectively.
